This is an account of results in US20230111910A1, “PD-1/PD-L1 INHIBITOR, PREPARATION METHOD THEREFOR, AND USE THEREOF” (SHANGHAI SYNERGY PHARMACEUTICAL SCIENCES CO., LTD., priority 2020, published 2023).

What all share (format): in vivo
One data set concerns ICR mice. Briefly: Acute toxicity test in mice, single dose, 14 days observation. Conditions: within 14 days from administration. As to the method: (§1) This experiment aims to test the toxic effects of the compounds in mice.
(§2) ICR mice, SPF grade, 6-8 weeks old, half male and half […], purchased from Sippe-Bk Lab Animal Co., Ltd., Shanghai, license number SCXK (Shanghai) 2018-0006, animal certificate number: 20180006010983.
(§3) ICR mice were administered different doses of compounds at a single time, and were continuously observed for 14 days. The animal death, poisoning reaction, body weight change, diet, appearance, behavior, etc. were recorded. At the end point, the animals were dissected, and the organs were taken for histopathological examination.

Test in data set [1]: as above
Conditions: both sexes, mouse, in vivo; ICR mice, single administration; read-out: median lethal dose (LD50). The procedure: as §1, §2, §3

A short description of data set [2]: Pharmacokinetic experiment in rats, LC/MS/MS. Conditions: male, rat, whole blood, SD rats; for AUC: read-out: Area under the curve (AUC, ng/mL.h); for half-life: read-out: Half life (T1/2, h) (converted); for bioavailability: p.o. 10 mg/kg vs i.v. 2 mg/kg, read-out: Bioavailability (F%); for Cmax: read-out: Blood concentration (Cmax, ng/mL). As to the method: Taking SD rats as an example, the drug concentrations in the plasma of rats at different times after i.g. and i.v. administration of compounds of Examples 1, 5, 6, 8, 12, 13, 15, 18, 19, 22, 25, 27 and 29, respectively, were determined by the liquid chromatography-tandem mass spectrometry (LS/MS/MS) method, and the relevant pharmacokinetic parameters were calculated to evaluate the pharmacokinetic properties of example compounds of the present invention in rats.
Healthy adult SD rats, SPF grade, male, purchased from Sippe-Bk Lab Animal Co., Ltd., Shanghai, license number SCXK (Shanghai) 2018-0006, animal certificate number: 20180006006321.
A certain amount of compound was weighed, dissolved in 5% dimethyl sulfoxide (DMSO), subjected to vortex and sonication, added with 0.5% sodium carboxymethyl cellulose (CMC-Na), and sonicated, to prepare a homogeneous solution.
Before administration and 5 min, 15 min, 0.5 h, 1 h, 2 h, 4 h, 6 h, 8 h and 24 h after administration, orbital blood was collected, 0.2 milliliters (mL) of blood being collected each time, and placed in an anticoagulant tube, mixed well, and stored in a −20° C. refrigerator for later use.
The content of the compound in rat whole blood was determined by liquid chromatography-tandem mass spectrometry (LS/MS/MS).
The pharmacokinetic parameters of the compounds after administration were calculated using the non-compartmental model of WinNonLin5.3 software.

Molecules are shown by their SMILES. Where a name gives a salt, the structure may show the parent alone. Read-outs that look alike come from different tables or passages of the source.

For `Cc1c(NC(=O)c2nc3c(n2C)CCN(C[C@H](C)O)C3)cncc1-c1cccc(NC(=O)c2nc3c(n2C)CCN(C[C@H](C)O)C3)c1Cl` [Example 26, N-(5-(2-chloro-3-(5-((S)-2-hydroxypropyl)-1-methyl-4,5,6,7-tetrahydro-1H-imidazo[4,5-c]pyridine-2-carboxamido)phenyl)-4-methylpyridin-3-yl)-5-((S)-2-hydroxypropyl)-1-methyl-4,5,6,7-tetrahydro-1H-imidazo[4,5-c]pyridine-2-carboxamide], the “body weight and behavior compared with control group” value in the data set on ICR mice was “no abnormal body weight or behavior”. Further, the LD50 (commonly the dose at which mortality reaches 50%) at 14 days in data set [1] is greater than 1000 mg/kg.

With `Cc1c(NC(=O)c2nc3c(s2)CNCC3)cccc1-c1cccc(-c2nc3cc(CN4CC[C@@H](C(=O)O)C4)cnc3o2)c1C` [Example 18, (R)-1-((2-(2,2′-dimethyl-3′-(4,5,6,7-tetrahydrothiazolo[5,4-c]pyridine-2-carboxamido)-[1,1′-biphenyl]-3-yl)oxazolo[5,4-b]pyridin-6-yl)methyl)pyrrolidine-3-carboxylic acid trifluoroacetate], in data set [2] (iv, i.v., 2 mg/kg), the AUC stood at 578 ng·h/mL and the half-life was 2.42 h. Besides, the bioavailability (in general, dose-corrected exposure relative to a reference, in per cent) in data set [2] (po) is 53%. Besides, in data set [2] (po, p.o. (i.g.), 10 mg/kg), the AUC was determined as 1530 ng·h/mL and the Cmax is 365 ng/mL.

`Cc1c(NC(=O)c2nc3c(s2)CN(C)CC3)cncc1-c1cccc(NC(=O)c2nc3c(n2C)CCN(CC(C)O)C3)c1C` (stereo not drawn) [Example 6, N-(5-(3-(5-(2-hydroxypropyl)-1-methyl-4,5,6,7-tetrahydro-1H-imidazo[4,5-c]pyridine-2-carboxamido)-2-methylphenyl)-4-methylpyridin-3-yl)-5-methyl-4,5,6,7-tetrahydrothiazolo[5,4-c]pyridine-2-carboxamide]: in data set [2] (iv, i.v., 2 mg/kg), the AUC was 676 ng·h/mL and the half-life is 1.36 h. The bioavailability in data set [2] (po) is 62%. Further, in data set [2] (po, p.o. (i.g.), 10 mg/kg), the AUC is 2100 ng·h/mL and the Cmax was determined as 389 ng/mL.

Turning to `Cc1c(NC(=O)c2nc3c(s2)CN(C)CC3)cncc1-c1cccc(-c2nc3cc(CN4CC[C@@H](C(=O)O)C4)cc(Cl)c3o2)c1C` [Example 8, (R)-1-((7-chloro-2-(2-methyl-3-(4-methyl-5-(5-methyl-4,5,6,7-tetrahydrothiazolo[5,4-c]pyridine-2-carboxamido)pyridin-3-yl)phenyl)benzo[d]oxazol-5-yl)methyl)pyrrolidine-3-carboxylic acid], in data set [2] (iv, i.v., 2 mg/kg), the AUC came out at 601 ng·h/mL and the half-life is 1.56 h. Further, the bioavailability in data set [2] (po) is 55%. Moreover, in data set [2] (po, p.o. (i.g.), 10 mg/kg), the AUC worked out at 1650 ng·h/mL and the Cmax came out at 402 ng/mL.

Regarding `Cc1c(NC(=O)c2nc(CNCCO)cn2C)cccc1-c1cccc(NC(=O)c2ccc(CNCCO)cn2)c1Cl` [Example 1, N-(2-chloro-3′-(4-(((2-hydroxyethyl)amino)methyl)-1-methyl-1H-imidazole-2-carboxamido)-2′-methyl-[1,1′-biphenyl]-3-yl)-5-(((2-hydroxyethyl)amino)methyl)picolinamide], in data set [2] (iv, i.v., 2 mg/kg), the AUC was 596 ng·h/mL and the half-life is 2.05 h. Moreover, in data set [2] (po), the bioavailability was determined as 56%. Also, in data set [2] (po, p.o. (i.g.), 10 mg/kg), the AUC was 1670 ng·h/mL and the Cmax is 415 ng/mL.

In the case of `Cc1c(NC(=O)c2nc3c(s2)CN(C)CC3)cncc1-c1cccc(NC(=O)c2nc3c(n2C)CCN(C)C3)c1C` [Example 5, N-(5-(3-(1,5-dimethyl-4,5,6,7-tetrahydro-1H-imidazo[4,5-c]pyridine-2-carboxamido)-2-methylphenyl)-4-methylpyridin-3-yl)-5-methyl-4,5,6,7-tetrahydrothiazolo[5,4-c]pyridine-2-carboxamide], in data set [2] (iv, i.v., 2 mg/kg), the AUC was 612 ng·h/mL and the half-life was 2.5 h. For the same molecule, the bioavailability in data set [2] (po) was 68%. For the same molecule, in data set [2] (po, p.o. (i.g.), 10 mg/kg), the AUC came to 2080 ng·h/mL and the Cmax is 432 ng/mL.

On to `Cc1c(NC(=O)c2nc3c(n2C)CCN(C[C@H](C)O)C3)cncc1-c1cccc(NC(=O)c2nc3c(n2C)CCN(C(C)C)C3)c1Cl` [Example 24, (S)—N-(2-chloro-3-(5-(5-(2-hydroxypropyl)-1-methyl-4,5,6,7-tetrahydro-1H-imidazo[4,5-c]pyridine-2-carboxamido)-4-methylpyridin-3-yl)phenyl)-5-isopropyl-1-methyl-4,5,6,7-tetrahydro-1H-imidazo[4,5-c]pyridine-2-carboxamide], for which the “body weight and behavior compared with control group” value in the data set on ICR mice was “no abnormal body weight or behavior”. The LD50 at 14 days in data set [1] was greater than 1000 mg/kg.

As to `Cc1c(NC(=O)c2nc3c(n2C)CCNC3)cccc1-c1cncc(-c2nc3cc(CN4CC[C@@H](C(=O)O)C4)cc(Cl)c3o2)c1C` [Example 19, (R)-1-(((7-chloro-2-(4-methyl-5-(2-methyl-3-(1-methyl-4,5,6,7-tetrahydro-1H-imidazole)[4,5-c]pyridine-2-carboxamido)phenyl)pyridin-3-yl)benzo[d]oxazol-5-yl)methyl)pyrrolidine-3-carboxylic acid], the “body weight and behavior compared with control group” value in the data set on ICR mice is given as “no abnormal body weight or behavior”. Besides, in data set [1], the LD50 at 14 days was greater than 1000 mg/kg. Further, in data set [2] (iv, i.v., 2 mg/kg), the AUC worked out at 560 ng·h/mL and the half-life is 2.21 h. For the same molecule, in data set [2] (po), the bioavailability was 65%. In addition, in data set [2] (po, p.o. (i.g.), 10 mg/kg), the AUC stood at 1820 ng·h/mL and the Cmax stood at 407 ng/mL.

Turning to `Cc1c(NC(=O)c2nc3c(n2C)CCN(C)C3)cncc1-c1cccc(-c2nc3cc(CN4CC[C@@H](C(=O)O)C4)cc(Cl)c3o2)c1C` [Example 21], in the data set on ICR mice, the “body weight and behavior compared with control group” value is reported as “no abnormal body weight or behavior”. The 50% lethal dose (LD50) at 14 days in data set [1] was greater than 1000 mg/kg.

Consider `Cc1c(NC(=O)c2nc3c(s2)CN(C)CC3)cccc1-c1cncc(-c2nc3cc(CN4CC[C@@H](C(=O)O)C4)cc(C#N)c3o2)c1C` [Example 25], for which, in data set [2] (iv, i.v., 2 mg/kg), the AUC stood at 612 ng·h/mL and the half-life was 2.35 h. The bioavailability in data set [2] (po) is 60%. Further, in data set [2] (po, p.o. (i.g.), 10 mg/kg), the AUC came to 1840 ng·h/mL and the Cmax was 435 ng/mL.

With `Cc1c(NC(=O)c2nc(CNCCO)cs2)cccc1-c1cccc(NC(=O)c2ccc(CNCCO)cn2)c1Cl` [Example 2], the “body weight and behavior compared with control group” value in the data set on ICR mice was “no abnormal body weight or behavior”. Besides, the LD50 at 14 days in data set [1] was greater than 1000 mg/kg.

Regarding `Cc1c(NC(=O)c2nc3c(s2)CN(C[C@H](C)O)CC3)cccc1-c1cccc(-c2nc3cc(CN4CC[C@@H](C(=O)O)C4)cnc3o2)c1C` [Example 22, (R)-1-((2-(3′-(5-((S)-2-hydroxypropyl)-4,5,6,7-tetrahydrothiazolo[5,4-c]pyridine-2-carboxamido)-2,2′-dimethyl-[1,1′-biphenyl]-3-yl)oxazolo[5,4-b]pyridin-6-yl)methyl)pyrrolidine-3-carboxylic acid], in data set [2] (iv, i.v., 2 mg/kg), the AUC came out at 578 ng·h/mL and the half-life is 1.46 h. In addition, the bioavailability in data set [2] (po) amounted to 51%. For the same molecule, in data set [2] (po, p.o. (i.g.), 10 mg/kg), the AUC came to 1470 ng·h/mL and the Cmax stood at 488 ng/mL.

Turning to `Cc1c(NC(=O)c2nc3c(n2C)CCN(C)C3)cccc1-c1cncc(-c2nc3cc(CN4CC[C@@H](C(=O)O)C4)cc(Cl)c3o2)c1C` [Example 13], the “body weight and behavior compared with control group” value in the data set on ICR mice is “no abnormal body weight or behavior”. For the same molecule, the LD50 at 14 days in data set [1] is greater than 1000 mg/kg. In addition, in data set [2] (iv, i.v., 2 mg/kg), the AUC was 630 ng·h/mL and the half-life was 1.43 h. Also, in data set [2] (po), the bioavailability was found to be 54%. Moreover, in data set [2] (po, p.o. (i.g.), 10 mg/kg), the AUC amounted to 1700 ng·h/mL and the Cmax was found to be 431 ng/mL.

On to `Cc1c(NC(=O)c2nc3c(n2C)CCN(CC(C)O)C3)cccc1-c1cccc(-c2nc3cc(CN4CC[C@@H](C(=O)O)C4)ncc3o2)c1C` (stereo partly drawn) [Example 29, (R)-1-((2-(3′-(5-(2-hydroxypropyl)-1-methyl-4,5,6,7-tetrahydro-1H-imidazo[4,5-c]pyridine-2-carboxamido)-2,2′-dimethyl-[1,1′-biphenyl]-3-yl)oxazolo[5,4-c]pyridin-6-yl)methyl)pyrrolidine-3-carboxylic acid], for which, in data set [2] (iv, i.v., 2 mg/kg), the AUC is 617 ng·h/mL and the half-life is 2.14 h. In addition, in data set [2] (po), the bioavailability is 48%. Further, in data set [2] (po, p.o. (i.g.), 10 mg/kg), the AUC amounted to 1480 ng·h/mL and the Cmax came out at 405 ng/mL.

`Cc1c(NC(=O)c2nc3c(n2C)CCN(C[C@H](C)O)C3)cccc1-c1cncc(-c2nc3cc(CN4CC[C@@H](C(=O)O)C4)cc(Cl)c3o2)c1C` [Example 12]: in data set [2] (iv, i.v., 2 mg/kg), the AUC is 586 ng·h/mL. Moreover, the bioavailability in data set [2] (po) came to 60%. In addition, in data set [2] (po, p.o. (i.g.), 10 mg/kg), the AUC turned out to be 1760 ng·h/mL and the Cmax was determined as 442 ng/mL.
